The source made the active and inactive calls. The calls are words filed in the database; no cut-off is given here.
Columns and labels:
HepG2 [1] = test: Antioxidant activity in human HepG2 cells assessed as reduction in H2O2-induced oxidation by DCFH-DA assay; assay type: functional, cell-based
[2] = Inhibition of active recombinant full-length CaMK2 (unknown origin) using Autocamtide substrate and [gamma32P]ATP after 30 mins by scintillation counting method; parameters: species or system Homo sapiens
[3] = test system: Radical scavenging activity; test: Antioxidant activity assessed as DPPH radical scavenging activity; assay type: functional; settings: dose or concentration not given here
[4] = test system: Radical scavenging activity; test: Antioxidant activity assessed as DPPH radical scavenging activity at 0.1 mM; assay type: functional
[5] = test system: Radical scavenging activity; test: Antioxidant activity assessed as DPPH radical scavenging activity at 1 mM; assay type: functional
[6] = test system: Radical scavenging activity; test: Antioxidant activity assessed as DPPH radical scavenging activity at 5.5 mM; assay type: functional
HepG2 [7] = test: Cytoprotective activity in human HepG2 cells assessed as reduction in H2O2-induced cell death at 10 to 100 ug/mL incubated for 2 hrs by MTT assay; assay type: functional, cell-based
HepG2 [8] = test: Cytoprotective activity in human HepG2 cells assessed as reduction in H2O2-induced cell death at 100 ug/mL incubated for 2 hrs by MTT assay; assay type: functional; parameters: scale not given: the % may be the effect or the level left

Structure (SMILES)	IC50 (HepG2 [1]) [µM]	IC50 [2] [µM]	inhibition [4] [%]	inhibition [5] [%]	inhibition [6] [%]	also measured
COc1cccc(OC(C)CNC(C)=O)c1 (racemic)	> 1000					
CC(=O)NCC(C)Oc1ccccc1 (racemic)	> 1000					
CC(=O)NC(C)COc1ccccc1 (racemic)	> 1000					
COc1cccc(O[C@H](C)CNC(=O)C2CC2)c1		129				
CC(=O)NCCOc1ccccc1	> 1000					
COc1cccc(OC(C)CNC(=O)C2CC2)c1 (racemic)	> 1000	107				
O=C(O)c1cc(O)c(O)c(O)c1			97.1			inhibition [3]: 6%
COc1ccc2[nH]cc(CCNC(C)=O)c2c1 [MELATONIN]	271	128	2.1	7.8	31.8	
COc1cccc(O[C@@H](C)CNC(=O)C2CC2)c1		117				
CCCC(=O)NCC(C)Oc1cccc(OC)c1 (racemic)	226	122	3.22	4.05	11.7	Activity (HepG2 [7]): Active
CCCC(=O)NC[C@H](C)Oc1cccc(OC)c1	> 1000	77	2.8	1.3	15.1	
CCCC(=O)NC[C@@H](C)Oc1cccc(OC)c1	183	129	5.6	5.1	20.7	Activity (HepG2 [8]): 100%; Activity (HepG2 [7]): Active
